Experiments:
EZH2 = settings: cited from earlier work
p300 HAT = settings: cited from earlier work
MCF-7 cells = assay: Cell cycle and apoptosis (sub-G1) analysis by FACS in MCF-7 cells; assay type: cell-based, human; settings: 5 μM, 30 h
Procedure: (§1) Compounds 4a–n were tested at 5 μM for 30 h in NB4 […] and U937 AML cells among hematological cancers, and in MCF-7 breast cancer and SH-SY5Y neuroblastoma cells among solid cancers, to determine their effects in cell cycle and apoptosis induction.
(§2) In the same cell lines, the induction of apoptosis has been evaluated through the percentage of the sub-G1 peaks.
(§3) For colorimetric exclusion, the cells (2 × 10^5 cells/mL) were plated in multiwells in triplicate. After stimulations at different times and concentrations, cells were diluted in the ratio 1:1 in Trypan Blue (Sigma) and counted with an optical microscope. For cell cycle analyses, cells were plated (2 × 10^5 cells/mL) and were harvested, centrifuged at 1200 rpm for 5 min and resuspended in 500 μL of a hypotonic solution containing 1× PBS, Sodium Citrate 0.1%, 0.1% NP-40, RNAase A and […] Propidium Iodide (PI). After 30 min at room temperature (RT) in the dark, samples were acquired by FACS-Calibur (BD Bioscences, San Jose, CA, USA) using CellQuest software (BD Biosciences). The percentage in different phases of the cell cycle was determined by ModFit LT V3 software (Verity). All experiments were performed in triplicate. Cell death was measured as percentage of cells in sub-G1 phase as in [30].

PRC2/EZH2 = PRC2/EZH2 (Homo sapiens, UniProt Q15910); assay: EZH2/PRC2 assay (core histone, 3H-SAM); assay type: biochemical; settings: 10-dose, duplicate, from 400 μM
PRC2/EZH2, sequence (Q15022 whole entry, the tested form may be a part): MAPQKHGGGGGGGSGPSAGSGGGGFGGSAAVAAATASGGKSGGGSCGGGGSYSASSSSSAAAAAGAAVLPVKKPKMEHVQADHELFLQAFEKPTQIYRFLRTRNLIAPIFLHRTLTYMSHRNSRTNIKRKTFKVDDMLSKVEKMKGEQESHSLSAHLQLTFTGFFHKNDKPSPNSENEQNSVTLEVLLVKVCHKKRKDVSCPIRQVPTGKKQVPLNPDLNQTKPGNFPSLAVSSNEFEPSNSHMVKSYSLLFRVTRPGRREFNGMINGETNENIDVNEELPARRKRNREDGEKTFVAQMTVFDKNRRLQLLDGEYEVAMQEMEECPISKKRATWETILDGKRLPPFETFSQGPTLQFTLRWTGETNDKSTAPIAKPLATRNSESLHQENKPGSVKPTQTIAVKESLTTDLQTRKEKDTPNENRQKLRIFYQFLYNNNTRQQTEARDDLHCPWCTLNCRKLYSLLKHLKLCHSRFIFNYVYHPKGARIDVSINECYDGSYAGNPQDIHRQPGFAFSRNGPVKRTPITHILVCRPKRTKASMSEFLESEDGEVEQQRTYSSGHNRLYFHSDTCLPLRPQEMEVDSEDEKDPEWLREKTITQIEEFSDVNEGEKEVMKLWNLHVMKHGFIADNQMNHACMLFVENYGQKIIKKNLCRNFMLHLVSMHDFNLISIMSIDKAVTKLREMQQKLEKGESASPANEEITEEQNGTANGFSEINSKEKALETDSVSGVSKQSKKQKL
PRC2/EZH2, sequence (Q09028 whole entry, further chain, the tested form may be a part): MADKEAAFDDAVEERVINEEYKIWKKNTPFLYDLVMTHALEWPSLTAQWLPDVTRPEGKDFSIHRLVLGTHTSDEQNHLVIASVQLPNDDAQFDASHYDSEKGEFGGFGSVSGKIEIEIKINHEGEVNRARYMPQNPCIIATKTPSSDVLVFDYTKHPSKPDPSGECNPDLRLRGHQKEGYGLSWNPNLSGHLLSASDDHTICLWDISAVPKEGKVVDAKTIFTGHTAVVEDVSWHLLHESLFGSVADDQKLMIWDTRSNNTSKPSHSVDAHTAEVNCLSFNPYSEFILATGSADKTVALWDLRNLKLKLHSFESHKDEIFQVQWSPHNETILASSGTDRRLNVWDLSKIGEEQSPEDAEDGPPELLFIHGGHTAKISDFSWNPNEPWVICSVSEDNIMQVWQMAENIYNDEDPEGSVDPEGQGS
PRC2/EZH2, sequence (Q6ZN18 whole entry, further chain, the tested form may be a part): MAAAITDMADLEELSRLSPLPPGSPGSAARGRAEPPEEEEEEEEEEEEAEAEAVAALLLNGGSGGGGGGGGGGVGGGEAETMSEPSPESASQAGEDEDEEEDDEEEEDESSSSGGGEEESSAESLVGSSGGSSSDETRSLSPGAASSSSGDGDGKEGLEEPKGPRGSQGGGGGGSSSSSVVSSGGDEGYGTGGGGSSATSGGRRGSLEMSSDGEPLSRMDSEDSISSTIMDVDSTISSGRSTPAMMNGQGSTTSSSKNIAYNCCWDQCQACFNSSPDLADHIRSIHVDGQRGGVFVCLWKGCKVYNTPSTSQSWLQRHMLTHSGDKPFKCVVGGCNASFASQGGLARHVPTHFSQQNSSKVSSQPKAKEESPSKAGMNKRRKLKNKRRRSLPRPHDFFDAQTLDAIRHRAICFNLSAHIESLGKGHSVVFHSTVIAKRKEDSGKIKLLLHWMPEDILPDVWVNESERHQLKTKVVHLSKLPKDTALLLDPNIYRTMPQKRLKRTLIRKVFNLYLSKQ
PRC2/EZH2, sequence (Q15910 whole entry, the tested form may be a part): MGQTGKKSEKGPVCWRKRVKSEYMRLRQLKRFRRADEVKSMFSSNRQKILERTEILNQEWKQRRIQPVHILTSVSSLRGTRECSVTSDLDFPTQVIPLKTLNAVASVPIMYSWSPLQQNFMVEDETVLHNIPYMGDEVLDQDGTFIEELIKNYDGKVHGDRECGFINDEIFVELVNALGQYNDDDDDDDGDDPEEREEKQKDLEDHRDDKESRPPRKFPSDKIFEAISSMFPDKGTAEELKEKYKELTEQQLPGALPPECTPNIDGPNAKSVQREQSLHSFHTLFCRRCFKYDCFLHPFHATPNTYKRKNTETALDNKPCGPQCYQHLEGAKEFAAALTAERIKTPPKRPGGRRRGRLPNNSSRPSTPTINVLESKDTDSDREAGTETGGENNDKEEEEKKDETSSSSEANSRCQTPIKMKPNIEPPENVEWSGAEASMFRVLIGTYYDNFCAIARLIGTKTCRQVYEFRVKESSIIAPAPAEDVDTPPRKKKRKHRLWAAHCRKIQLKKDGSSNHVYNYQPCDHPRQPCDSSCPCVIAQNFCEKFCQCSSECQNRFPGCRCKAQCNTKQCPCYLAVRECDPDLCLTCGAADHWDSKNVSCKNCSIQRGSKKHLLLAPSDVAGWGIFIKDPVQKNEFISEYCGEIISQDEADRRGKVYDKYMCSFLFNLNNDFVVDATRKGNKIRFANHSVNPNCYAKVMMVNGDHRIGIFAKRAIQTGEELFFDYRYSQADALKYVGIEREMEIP
PRC2/EZH2, sequence (O75530 whole entry, further chain, the tested form may be a part): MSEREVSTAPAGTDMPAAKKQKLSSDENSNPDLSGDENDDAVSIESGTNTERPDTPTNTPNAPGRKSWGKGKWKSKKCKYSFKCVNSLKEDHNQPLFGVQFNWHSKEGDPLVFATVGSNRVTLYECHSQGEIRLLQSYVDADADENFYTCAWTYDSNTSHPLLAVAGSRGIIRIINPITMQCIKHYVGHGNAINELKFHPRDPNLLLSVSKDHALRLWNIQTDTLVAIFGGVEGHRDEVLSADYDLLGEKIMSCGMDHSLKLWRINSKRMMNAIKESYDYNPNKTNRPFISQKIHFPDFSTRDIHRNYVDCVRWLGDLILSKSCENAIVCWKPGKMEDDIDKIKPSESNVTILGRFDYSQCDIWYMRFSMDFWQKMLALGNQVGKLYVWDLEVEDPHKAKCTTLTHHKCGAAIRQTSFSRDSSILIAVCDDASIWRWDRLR
Procedure: (§4) The newly synthesized compounds 4a–n were tested to determine their effects against acetylation and methylation epigenetic targets. First, 4a–n were screened in vitro against the two HAT enzymes p300 and PCAF. […] To determine the activity against SIRT1 and -2, 4a–n were tested starting from 200 μM solutions using a modified Fluor de Lys fluorescence-based assay with amino acids 379–382 (Arg-His-Lys-Lys(Ac)) of human p53 conjugated with aminomethylcoumarin as substrate and NAD^+ as co-substrate. […] Furthermore, 4a–n were tested against a human five-membered Polycomb repressive complex 2 (PRC2) containing EZH2, embryonic ectoderm development (EED), suppressor of zeste 12 (SUZ12), RbAp48, and adipocyte enhancer-binding protein (AEBP2), to assess their capability to inhibit the catalytic unit EZH2.
The EZH2 substrate (0.05 mg/mL core histone) was added in the freshly prepared reaction buffer (50 mM Tris-HCl (pH 8.0), 50 mM NaCl, 1 mM EDTA, 1 mM DTT, 1 mM PMSF, 1% DMSO). The PRC2 complex (complex of human EZH2, human EED, human SUZ12, human AEBP2, and human RbAp48) was delivered into the substrate solution and the mixture was mixed gently. Afterwards, the tested compounds dissolved in DMSO were delivered into the enzyme/substrate reaction mixture by using Acoustic Technology (Echo 550, LabCyte Inc. Sunnyvale, CA, USA) in nanoliter range, and ^3H-SAM was added into the reaction mixture to initiate the reaction. The reaction mixture was incubated for 1 h at 30 °C and then it was delivered to filter-paper for detection. The data were analyzed using Excel and GraphPad Prism software for IC50 curve fits. The experiments were performed in duplicate.

CARM1 [1] = biological target: T1, CARM1 (Homo sapiens, UniProt Q86X55); assay: CARM1 assay (histone H3, 3H-SAM); assay type: biochemical
T1 sequence (Q86X55 1-608): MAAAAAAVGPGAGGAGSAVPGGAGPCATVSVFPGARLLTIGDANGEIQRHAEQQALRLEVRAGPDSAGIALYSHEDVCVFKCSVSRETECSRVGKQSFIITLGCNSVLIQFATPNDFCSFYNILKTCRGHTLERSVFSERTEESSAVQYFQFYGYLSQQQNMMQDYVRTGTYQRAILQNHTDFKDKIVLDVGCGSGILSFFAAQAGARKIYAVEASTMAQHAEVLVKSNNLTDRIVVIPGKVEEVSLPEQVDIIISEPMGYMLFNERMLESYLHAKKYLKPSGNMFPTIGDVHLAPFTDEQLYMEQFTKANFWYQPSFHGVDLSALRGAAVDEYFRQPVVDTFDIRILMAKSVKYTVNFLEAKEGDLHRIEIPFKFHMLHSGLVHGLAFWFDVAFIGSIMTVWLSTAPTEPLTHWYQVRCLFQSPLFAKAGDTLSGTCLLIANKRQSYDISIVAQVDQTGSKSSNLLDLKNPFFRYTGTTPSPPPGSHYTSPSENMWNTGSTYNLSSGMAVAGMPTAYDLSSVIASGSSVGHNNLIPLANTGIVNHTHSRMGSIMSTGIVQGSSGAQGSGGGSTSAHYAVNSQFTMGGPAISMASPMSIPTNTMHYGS
Procedure: Histone H3 (5 μM) was added in freshly prepared reaction buffer (50 mM Tris-HCl (pH 8.5), 5 mM MgCl2, 50 mM NaCl, 0.01% Brij35, 1 mM DTT, 1% DMSO). CARM1 was delivered into the substrate solution and the mixture was mixed gently. Afterwards, the tested compounds dissolved in DMSO were delivered into the enzyme/substrate reaction mixture by using Acoustic Technology (Echo 550, LabCyte Inc. Sunnyvale, CA) in nanoliter range, and 1 µM ^3H-SAM was also added into the reaction mixture to initiate the reaction. The reaction mixture was incubated for 1 h at 30 °C and then it was delivered to filter-paper for detection. The data were analyzed using Excel and GraphPad Prism software for IC50 curve fits. The experiments were performed in triplicate.

SIRT2 = biological target: T2, SIRT2 (Homo sapiens, UniProt Q8IXJ6); assay: Modified Fluor de Lys fluorescence-based assay, SIRT2; assay type: biochemical; settings: from 200 μM; p53 379-382 AMC substrate, NAD+
T2 construct: host or cells: E. coli
T2 sequence (Q8IXJ6 whole entry): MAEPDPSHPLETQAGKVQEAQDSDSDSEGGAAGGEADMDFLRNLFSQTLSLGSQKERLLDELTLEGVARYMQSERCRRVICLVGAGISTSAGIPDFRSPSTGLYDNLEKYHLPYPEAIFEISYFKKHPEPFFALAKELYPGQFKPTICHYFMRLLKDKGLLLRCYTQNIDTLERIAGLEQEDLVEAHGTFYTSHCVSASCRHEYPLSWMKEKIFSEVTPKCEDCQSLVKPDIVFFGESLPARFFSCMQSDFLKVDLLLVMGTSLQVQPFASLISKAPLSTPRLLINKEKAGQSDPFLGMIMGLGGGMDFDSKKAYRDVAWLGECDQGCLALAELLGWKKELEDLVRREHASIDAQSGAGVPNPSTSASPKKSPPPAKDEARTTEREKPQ
Procedure: as §4
(§5) The SIRT inhibition assay was performed using human recombinant SIRT1 and SIRT2 produced in E. coli. Compounds were tested using a modified Fluor de Lys fluorescence-based assay kit based on the method described in the BioMol product sheet (AK-555, AK-556, Milan, Italy). […] The second stage is initiated by the addition of the Developer II (KI176), including nicotinamide (NAM), nicotinamide that stops the SIRT1/2 activity, and the fluorescent signal is produced. The fluorescence was measured on a fluorometric reader (Infinite 200 TECAN, Männedorf, Switzerland) with excitation set at 360 nm and emission detection set at 460 nm.

PCAF = biological target: T3, PCAF (Homo sapiens, UniProt Q92831); assay: HotSpot HAT activity assay, PCAF; assay type: biochemical; settings: 10-dose, from 200 μM; histone H3, [acetyl-3H]-acetyl-CoA
T3 construct: PCAF (aa 492–658, 250 nM); purchased Reaction Biology Corporation
T3 sequence (Q92831 492-658): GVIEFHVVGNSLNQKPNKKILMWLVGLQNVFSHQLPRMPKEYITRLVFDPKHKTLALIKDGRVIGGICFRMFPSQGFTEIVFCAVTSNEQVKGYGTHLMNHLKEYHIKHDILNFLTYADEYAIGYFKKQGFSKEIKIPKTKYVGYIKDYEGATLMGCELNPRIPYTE
Procedure: as §4
(§6) The effect of tested derivatives on the catalytic activity of p300 and PCAF was determined in a HotSpot HAT activity assay by Reaction Biology Corporation (Malvern, PA, USA) according to the company’s standard operating procedure. In brief, the recombinant catalytic domains of PCAF (aa 492–658, 250 nM) or p300 (aa 1284–1673, 30 nM) were incubated with histone H3 as substrate (5 µM) and [Acetyl-^3H]-Acetyl Coenzyme A (3 µM) as an acetyl donor in reaction buffer (50 mM Tris-HCl (pH 8.0), 50 mM NaCl, 0.1 mM EDTA, 1 mM DTT, 1 mM PMSF, 1% DMSO) for 1 h at 30 °C in the presence or absence of a dose titration of the compounds. The reaction mixture was delivered to filter-paper for detection. IC50 values were analyzed using Excel and GraphPad Prism 6.0 software (GraphPad Software Inc., San Diego, CA, USA). The experiments for p300 were performed in triplicate.

SIRT1 = biological target: T4, SIRT1 (Homo sapiens, UniProt Q96EB6); assay: Modified Fluor de Lys fluorescence-based assay, SIRT1; assay type: biochemical; settings: from 200 μM; p53 379-382 AMC substrate, NAD+
T4 construct: host or cells: E. coli
T4 sequence (Q96EB6 whole entry): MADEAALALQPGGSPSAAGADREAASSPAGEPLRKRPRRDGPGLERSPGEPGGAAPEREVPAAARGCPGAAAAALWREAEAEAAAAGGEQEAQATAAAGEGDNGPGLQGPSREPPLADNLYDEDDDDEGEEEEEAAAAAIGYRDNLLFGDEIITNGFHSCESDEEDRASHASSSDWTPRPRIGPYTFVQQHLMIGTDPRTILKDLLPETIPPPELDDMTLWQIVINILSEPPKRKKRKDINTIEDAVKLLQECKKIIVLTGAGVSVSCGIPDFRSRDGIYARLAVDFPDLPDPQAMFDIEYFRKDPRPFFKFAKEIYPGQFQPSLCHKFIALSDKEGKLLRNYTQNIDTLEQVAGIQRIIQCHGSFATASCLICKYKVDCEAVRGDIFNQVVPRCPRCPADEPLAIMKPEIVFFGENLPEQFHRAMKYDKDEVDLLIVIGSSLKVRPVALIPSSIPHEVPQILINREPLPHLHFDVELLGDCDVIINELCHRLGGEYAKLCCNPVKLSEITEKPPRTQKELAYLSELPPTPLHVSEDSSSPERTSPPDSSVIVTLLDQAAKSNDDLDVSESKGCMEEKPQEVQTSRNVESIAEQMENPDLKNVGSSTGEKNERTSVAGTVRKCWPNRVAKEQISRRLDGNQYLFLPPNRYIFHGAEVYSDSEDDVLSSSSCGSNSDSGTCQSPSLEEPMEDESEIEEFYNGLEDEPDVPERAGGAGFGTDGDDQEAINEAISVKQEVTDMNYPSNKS
Procedure: as §4, §5

p300 [2] = biological target: T5, p300 (Homo sapiens, UniProt Q09472); assay: HotSpot HAT activity assay, p300; assay type: biochemical; settings: 10-dose, triplicate, from 200 μM; histone H3, [acetyl-3H]-acetyl-CoA
T5 construct: p300 (aa 1284–1673, 30 nM); purchased Reaction Biology Corporation
T5 sequence (Q09472 1284-1673): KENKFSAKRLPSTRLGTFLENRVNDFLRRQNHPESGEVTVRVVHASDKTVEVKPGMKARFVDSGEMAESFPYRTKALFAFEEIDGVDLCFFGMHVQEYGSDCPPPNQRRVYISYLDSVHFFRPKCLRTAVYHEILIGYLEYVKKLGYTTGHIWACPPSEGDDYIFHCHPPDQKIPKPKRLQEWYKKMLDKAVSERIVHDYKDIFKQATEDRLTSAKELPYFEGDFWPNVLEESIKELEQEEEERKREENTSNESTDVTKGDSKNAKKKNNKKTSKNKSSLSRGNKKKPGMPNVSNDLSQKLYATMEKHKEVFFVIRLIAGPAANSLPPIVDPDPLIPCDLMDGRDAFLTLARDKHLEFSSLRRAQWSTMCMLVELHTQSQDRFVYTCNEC
Procedure: as §4, §6

NB4 cells = assay: Cell cycle and apoptosis (sub-G1) analysis by FACS in NB4 cells; assay type: cell-based, human; settings: 5 μM, 30 h
Procedure: as §1, §2, §3

p300 [3] = assay: Western blot of acetylation marks (p300 inhibition) in MCF-7 cells; assay type: cell-based, human; settings: 5 μM, 30 h
Procedure: (§7) In MCF-7 cells, the levels of acetyl-H3, acetyl-H4, H3K27me3, and H3R17me2 were detected by western blot analyses as functional tests for p300 (acH3 and acH4), EZH2 (H3K27me3) and CARM1 (H3R17me2) inhibition in cells, respectively (Figure 5).
(§8) The procedures were performed as described in [30, 31]. Primary antibodies used were: Ac-H3 (Millipore, Milan, Italy); Ac-H4 (Millipore, Milan, Italy); Ac-H3K9-14 (Diagenode, Ougrée, Belgium); Ac-α-tubulin (Sigma-Aldrich), H3K27me3 (Diagenode); H3R17me2 (Diagenode); EZH2 (Abcam, Cambridge, UK). H3 (Sigma-Aldrich), H4 (Abcam), GAPDH (Sigma) and ERKs (Santa Cruz, Biotechnology, TX, USA) were used to normalize the total protein extracts (see also Supplementary Material).

CARM1 [4] = assay: Western blot of H3R17me2 (CARM1) in MCF-7 cells; assay type: cell-based, human; settings: 5 μM, 30 h
Procedure: as §7, §8

Row | SMILES | EZH2 inhibition (in words) (EZH2) | p300 inhibition (in words) (p300 HAT) | cell cycle: block in G1/S phase with almost total absence of cells in the G2/M phase (MCF-7 cells) | IC50 (PRC2/EZH2) | IC50 (CARM1 [1]) | IC50 (SIRT2) | IC50 (PCAF) | IC50 (SIRT1) | IC50 (p300 [2]) | induction of apoptosis, % sub-G1 peaks (NB4 cells) | melting point | levels of acetyl-H4 (p300 [3]) | levels of acetyl-α-tubulin (p300 [3]) | levels of H3R17me2 (CARM1 [4])
1 | O=C1/C(=C/c2cccc(Br)c2)CN(Cc2ccccc2)C/C1=C\c1cccc(Br)c1 [Compound 3, 1-benzyl-3,5-bis((E)-3-bromobenzylidene)piperidin-4-one] | dual p300/EZH2 inhibitor | dual p300/EZH2 inhibitor |  |  |  |  |  |  |  |  |  |  |  | 
2 | O=C1/C(=C/c2ccccc2Br)CCC/C1=C\c1ccccc1Br [Compound 4a, 2,6-bis((E)-2-bromobenzylidene)cyclohexan-1-one] |  |  | almost total absence of cells | 117 ± 6 µM | 16.8 ± 3.4 µM | > 200 µM | > 200 µM | > 200 µM | 1.38 ± 0.24 µM |  |  |  |  | 
3 | O=C1/C(=C/c2ccccc2Br)COC/C1=C\c1ccccc1Br [Compound 4b, 3,5-bis((E)-2-bromobenzylidene)tetrahydro-4H-pyran-4-one] |  |  |  |  | 23.3 ± 0.5 µM | > 200 µM | > 200 µM | > 200 µM | 2.56 ± 0.23 µM |  |  |  |  | 
4 | O=C1/C(=C/c2ccccc2Br)CNC/C1=C\c1ccccc1Br [Compound 4c, 3,5-bis((E)-2-bromobenzylidene)piperidin-4-one] |  |  | almost total absence of cells |  | 44.8 ± 6 µM | > 200 µM | > 200 µM | > 200 µM | 23.2 ± 0.51 µM |  |  |  |  | 
5 | CN1C/C(=C\c2ccccc2Br)C(=O)/C(=C/c2ccccc2Br)C1 [Compound 4d, 3,5-bis((E)-2-bromobenzylidene)-1-methylpiperidin-4-one] |  |  | almost total absence of cells | 46.7 ± 1.1 µM | 3.24 ± 1.22 µM | > 200 µM | > 200 µM | > 200 µM | 2.66 ± 0.15 µM | 30 to 40% |  |  |  | 
6 | O=C1/C(=C/c2ccccc2Br)CN(CCC(=O)c2ccccc2)C/C1=C\c1ccccc1Br [Compound 4i, 3,5-Bis((E)-2-bromobenzylidene)-1-(3-oxo-3-phenylpropyl)piperidin-4-one] |  |  |  | 60.6 ± 10.5 µM | 6.96 ± 0.9 µM | > 200 µM | > 200 µM | > 200 µM | 1.57 ± 0.72 µM |  | 95 to 97 °C | decrease of the acetylation levels | decrease of the acetylation levels | most effective
7 | CCCCCCCCCCCCCCCc1cccc(O)c1C(=O)O [anacardic acid, reference compound] |  |  |  |  |  |  | 40 ± 10.9 µM |  |  |  |  |  |  | 

From paper PMC7397249, “Properly Substituted Cyclic Bis-(2-bromobenzylidene) Compounds Behaved as Dual p300/CARM1 Inhibitors and Induced Apoptosis in Cancer Cells” (Molecules, 2020)
